Results taken from the NIST ThermoML archive (doi:10.1021/je060343y).

Key:
[1] = φn = volume fraction of the nth substance listed; settings: 101 kPa, Liquid
[2] = 101 kPa, Liquid

CCOC(C)=O [ethyl acetate] + CNC(C)=O
[1], φ2 = 0
Settings | mass density [kg/m3] | speed of sound [m/s]
303.15 K | 888.9 | 1119
308.15 K | 882.6 | 1098
313.15 K | 875.9 | 1081
318.15 K | 869.6 | 1058

CCOC(=O)CCl [ethyl chloroethanoate]
[2]
Settings | mass density [kg/m3] | speed of sound [m/s]
303.15 K | 1139.29 | 1229
308.15 K | 1132.5 | 1212
313.15 K | 1125.9 | 1198
318.15 K | 1119.9 | 1177

CCOC(=O)CC#N [ethyl cyanoacetate] + CNC(C)=O
[1]
Settings | mass density [kg/m3] | speed of sound [m/s]
303.15 K, φ2 = 0 | 1051.4 | 1397
303.15 K, φ2 = 0.0529 | 1048.11 | 1396
303.15 K, φ2 = 0.186 | 1036.06 | 1391
303.15 K, φ2 = 0.2745 | 1027.82 | 1389
303.15 K, φ2 = 0.3672 | 1018.95 | 1386
303.15 K, φ2 = 0.4502 | 1010.93 | 1384
303.15 K, φ2 = 0.5435 | 1001.23 | 1380
303.15 K, φ2 = 0.5664 | 998.75 | 1379
303.15 K, φ2 = 0.7307 | 980.97 | 1375
303.15 K, φ2 = 0.8795 | 964.97 | 1370
308.15 K, φ2 = 0 | 1046.5 | 1385
308.15 K, φ2 = 0.0529 | 1041.91 | 1384
308.15 K, φ2 = 0.1862 | 1029.63 | 1380
308.15 K, φ2 = 0.2747 | 1021.42 | 1378
308.15 K, φ2 = 0.3675 | 1012.63 | 1375
308.15 K, φ2 = 0.4504 | 1004.44 | 1373
308.15 K, φ2 = 0.5438 | 994.68 | 1371
308.15 K, φ2 = 0.5666 | 992.26 | 1370
308.15 K, φ2 = 0.7309 | 974.66 | 1367
308.15 K, φ2 = 0.8796 | 958.76 | 1365
313.15 K, φ2 = 0 | 1040.8 | 1368
313.15 K, φ2 = 0.0528 | 1036.3 | 1366
313.15 K, φ2 = 0.1857 | 1024.28 | 1362
313.15 K, φ2 = 0.2741 | 1015.97 | 1359
313.15 K, φ2 = 0.3667 | 1007.36 | 1356
313.15 K, φ2 = 0.4497 | 999.41 | 1353
313.15 K, φ2 = 0.543 | 990.26 | 1349
313.15 K, φ2 = 0.5659 | 987.92 | 1348
313.15 K, φ2 = 0.7303 | 971.38 | 1343
313.15 K, φ2 = 0.8793 | 956.39 | 1337
318.15 K, φ2 = 0 | 1034.7 | 1359
318.15 K, φ2 = 0.0527 | 1030.52 | 1358
318.15 K, φ2 = 0.1854 | 1018.59 | 1356
318.15 K, φ2 = 0.2737 | 1010.48 | 1352
318.15 K, φ2 = 0.3663 | 1001.85 | 1348
318.15 K, φ2 = 0.4492 | 994.13 | 1345
318.15 K, φ2 = 0.5425 | 985.18 | 1341
318.15 K, φ2 = 0.5654 | 982.97 | 1340
318.15 K, φ2 = 0.7299 | 966.83 | 1332
318.15 K, φ2 = 0.8791 | 952.07 | 1324

CCOC(C)=O [ethyl acetate]
[2]
Settings | mass density [kg/m3] | speed of sound [m/s]
303.15 K | 888.9 | 1119
308.15 K | 882.6 | 1098
313.15 K | 875.9 | 1081
318.15 K | 869.6 | 1058

CNC(C)=O [N-methylacetamide] + CCOC(C)=O
[1]
Settings | mass density [kg/m3] | speed of sound [m/s]
303.15 K, φ1 = 0.0538 | 893.87 | 1132
303.15 K, φ1 = 0.1843 | 903.06 | 1167
303.15 K, φ1 = 0.2972 | 910.76 | 1197
303.15 K, φ1 = 0.3991 | 917.49 | 1223
303.15 K, φ1 = 0.4982 | 923.67 | 1248
303.15 K, φ1 = 0.594 | 929.3 | 1271
303.15 K, φ1 = 0.6955 | 935.03 | 1295
303.15 K, φ1 = 0.7437 | 937.68 | 1306
303.15 K, φ1 = 0.9463 | 948.19 | 1354
303.15 K, φ1 = 1 | 951.3 | 1367
308.15 K, φ1 = 0.0537 | 887.58 | 1114
308.15 K, φ1 = 0.1841 | 896.86 | 1149
308.15 K, φ1 = 0.2969 | 904.58 | 1180
308.15 K, φ1 = 0.3988 | 911.43 | 1208
308.15 K, φ1 = 0.4979 | 917.94 | 1234
308.15 K, φ1 = 0.5937 | 923.93 | 1259
308.15 K, φ1 = 0.6952 | 930.02 | 1284
308.15 K, φ1 = 0.7434 | 932.86 | 1296
308.15 K, φ1 = 0.9488 | 943.96 | 1348
308.15 K, φ1 = 1 | 945.9 | 1362
313.15 K, φ1 = 0.0534 | 880.97 | 1097
313.15 K, φ1 = 0.1833 | 891.3 | 1132
313.15 K, φ1 = 0.2958 | 899.84 | 1161
313.15 K, φ1 = 0.3976 | 907.15 | 1188
313.15 K, φ1 = 0.4966 | 913.79 | 1214
313.15 K, φ1 = 0.5924 | 920.09 | 1238
313.15 K, φ1 = 0.6941 | 926.71 | 1263
313.15 K, φ1 = 0.7431 | 929.67 | 1274
313.15 K, φ1 = 0.946 | 941.22 | 1322
313.15 K, φ1 = 1 | 943.6 | 1334
318.15 K, φ1 = 0.0533 | 875.13 | 1074
318.15 K, φ1 = 0.1828 | 886.1 | 1113
318.15 K, φ1 = 0.2951 | 894.79 | 1144
318.15 K, φ1 = 0.3968 | 902.46 | 1172
318.15 K, φ1 = 0.4958 | 909.37 | 1198
318.15 K, φ1 = 0.5916 | 915.67 | 1223
318.15 K, φ1 = 0.6934 | 922.12 | 1249
318.15 K, φ1 = 0.7418 | 925.21 | 1261
318.15 K, φ1 = 0.9458 | 937.26 | 1309
318.15 K, φ1 = 1 | 939.9 | 1319

CCOC(=O)CC#N [ethyl cyanoacetate]
[2]
Settings | mass density [kg/m3] | speed of sound [m/s]
303.15 K | 1051.4 | 1397
308.15 K | 1046.5 | 1385
313.15 K | 1040.8 | 1368
318.15 K | 1034.7 | 1359

CNC(C)=O [N-methylacetamide]
[2]
Settings | mass density [kg/m3] | speed of sound [m/s]
303.15 K | 951.3 | 1367
308.15 K | 945.9 | 1362
313.15 K | 943.6 | 1334
318.15 K | 939.9 | 1319

CCOC(=O)CCl [ethyl chloroethanoate] + CNC(C)=O
[1]
Settings | mass density [kg/m3] | speed of sound [m/s]
303.15 K, φ2 = 0 | 1139.29 | 1229
303.15 K, φ2 = 0.0547 | 1128.33 | 1238
303.15 K, φ2 = 0.154 | 1110.27 | 1252
303.15 K, φ2 = 0.2473 | 1093.79 | 1265
303.15 K, φ2 = 0.2903 | 1085.92 | 1272
303.15 K, φ2 = 0.4356 | 1059.31 | 1293
303.15 K, φ2 = 0.5321 | 1041.12 | 1305
303.15 K, φ2 = 0.6203 | 1024.32 | 1317
303.15 K, φ2 = 0.7118 | 1006.88 | 1329
303.15 K, φ2 = 0.8656 | 977.31 | 1350
308.15 K, φ2 = 0 | 1132.5 | 1212
308.15 K, φ2 = 0.0547 | 1123.26 | 1221
308.15 K, φ2 = 0.154 | 1105.23 | 1235
308.15 K, φ2 = 0.2473 | 1088.2 | 1249
308.15 K, φ2 = 0.2902 | 1080.37 | 1256
308.15 K, φ2 = 0.4356 | 1053.83 | 1277
308.15 K, φ2 = 0.532 | 1036.02 | 1291
308.15 K, φ2 = 0.6202 | 1019.38 | 1304
308.15 K, φ2 = 0.7118 | 1002.05 | 1318
308.15 K, φ2 = 0.8656 | 972.28 | 1342
313.15 K, φ2 = 0 | 1125.9 | 1198
313.15 K, φ2 = 0.0545 | 1115.23 | 1207
313.15 K, φ2 = 0.1535 | 1098.23 | 1220
313.15 K, φ2 = 0.2466 | 1082.14 | 1233
313.15 K, φ2 = 0.2895 | 1074.53 | 1239
313.15 K, φ2 = 0.4347 | 1048.13 | 1259
313.15 K, φ2 = 0.5312 | 1030.46 | 1271
313.15 K, φ2 = 0.6194 | 1014.19 | 1283
313.15 K, φ2 = 0.7111 | 997.15 | 1296
313.15 K, φ2 = 0.8652 | 968.5 | 1317
318.15 K, φ2 = 0 | 1119.9 | 1177
318.15 K, φ2 = 0.0544 | 1109.19 | 1187
318.15 K, φ2 = 0.1533 | 1090.85 | 1202
318.15 K, φ2 = 0.2464 | 1073.98 | 1207
318.15 K, φ2 = 0.2892 | 1066.23 | 1212
318.15 K, φ2 = 0.4344 | 1040.02 | 1231
318.15 K, φ2 = 0.5308 | 1022.75 | 1244
318.15 K, φ2 = 0.6191 | 1007.06 | 1257
318.15 K, φ2 = 0.7108 | 990.68 | 1272
318.15 K, φ2 = 0.865 | 963.31 | 1296

CNC(C)=O [N-methylacetamide] + CCOC(=O)CCl
[1], φ1 = 1
Settings | mass density [kg/m3] | speed of sound [m/s]
303.15 K | 951.3 | 1367
308.15 K | 945.9 | 1362
313.15 K | 943.6 | 1334
318.15 K | 939.9 | 1319

CNC(C)=O [N-methylacetamide] + CCOC(=O)CC#N
[1], φ1 = 1
Settings | mass density [kg/m3] | speed of sound [m/s]
303.15 K | 951.3 | 1367
308.15 K | 945.9 | 1362
313.15 K | 943.6 | 1334
318.15 K | 939.9 | 1319
